# Test results taken from patent US20150126964A1, “DRUG DELIVERY ACROSS THE BLOOD-BRAIN BARRIER USING MAGNETICALLY HEATABLE ENTITIES” (CORPORATION DE L'ECOLE POLYTECHNIQUE DE MONTREAL, priority 2012, published 2015).
# Where “and” joins values, the source holds several entries; their conditions need not be identical. Identical values can stand only once.
# Test system: blood-brain barrier
# Experiment: Histological examination of blood-brain barrier leakage of Evans blue dye after external heating
# Assay type: in vivo, mice
# Details: one line per animal
# Description: Staining of the blood-brain barrier is a traditional method for evaluating blood-brain barrier leakage. Evans Blue dye, an exogenous tracer, is used to assess the integrity of the blood-brain barrier following a hyperthermic disruption. The dye molecules are able to easily diffuse through the fenestrated endothelial cells of all capillaries except those of the brain due to a functional blood-brain barrier. However, once the blood-brain barrier is compromised, Evans blue enters the brain and it fluoresces with excitation peaks at 470 and 540 nm and an emission peak at 680 nm. Histological staining techniques can therefore reflect the extent of blood-brain barrier leakage by studying the intensity of Evans blue dye in the brain.
# Phase ii. The purpose of this part of the experiment was to examine the feasibility of hyperthermic disruption of the blood-brain barrier as well as its recovery period from thermal damage using Evans blue staining technique. Here, nine mice, each 6-8 weeks of age, were randomly divided into three identical groups. In contrast to the previous part, no holes were drilled into the exposed surface of the skull of these animals. In order to correlate temperature patterns with stains left from the Evans blue dye, the heating parameters for all groups were kept the same as was described in the first part of this experiment. […]
compound,measurement,setting,value
Cc1cc(-c2ccc(/N=N/c3ccc4c(S(=O)(=O)O)cc(S(=O)(=O)O)c(N)c4c3O)c(C)c2)ccc1/N=N/c1ccc2c(S(=O)(=O)O)cc(S(=O)(=O)O)c(N)c2c1O [Evans blue],Diameter of BBB leakage of Evans blue (mm),"Group I Hyperthermic Disruption, 30 min heating near Bregma, sacrificed one hour after dye",0 mm and 4.22 mm and 2.46 mm
same,Diameter of BBB leakage of Evans blue (mm),"Group II Recovery from Hyperthermia, dye injected 2 hours after 30 min thermal treatment",0 mm and 0.62 mm and 1.98 mm
